In this assay the target is G-protein coupled receptor 55 (Homo sapiens, UniProt Q9Y2T6). The assay can be described thus: Activation of recombinant human GPR55 expressed in HEK293 cells assessed as increase in [35S]-GTPgammaS stimulation incubated for 60 min by scintillation counting method. The assay is classed as functional, cell-based. For orientation: GTPγS is a poorly hydrolysed GTP analogue; its binding reports G protein activation.
Chain of G-protein coupled receptor 55 (Q9Y2T6 whole entry): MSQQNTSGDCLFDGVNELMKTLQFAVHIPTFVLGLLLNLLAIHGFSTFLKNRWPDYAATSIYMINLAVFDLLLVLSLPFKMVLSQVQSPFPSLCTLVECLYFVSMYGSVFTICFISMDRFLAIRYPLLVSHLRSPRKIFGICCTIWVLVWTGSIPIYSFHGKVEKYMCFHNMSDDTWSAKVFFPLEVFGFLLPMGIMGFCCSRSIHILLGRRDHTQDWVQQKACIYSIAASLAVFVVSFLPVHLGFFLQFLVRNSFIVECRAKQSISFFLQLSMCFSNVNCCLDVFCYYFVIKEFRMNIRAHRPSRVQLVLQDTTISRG

For `C=C(C)[C@@H]1CCC(C)=C[C@H]1c1c(O)cc(O)cc1CCCCC`, the half-maximal effective concentration (EC50) (as a rule, the concentration giving half of the maximal effect) worked out at 2 nM.

Turning to `C=C(C)[C@@H]1CCC(C)=C[C@H]1c1c(C)cc(O)cc1O`, the EC50 is 2 nM.

The record behind these values is ChEMBL document CHEMBL4680278 (J Med Chem, 2020).
